Laboratory results reported in patent US20240374681A1, “Formulation for Co-Administration of Q-GRFT and Tenofovir” (priority 2021, published 2024).

What was measured:
[1] = system: Caco-2 monolayer cell model; test: Caco-2 monolayer permeability of paracellular marker [^14C]-Mannitol
Text: Caco-2 Monolayer Cell Model Permeability Study Procedure: The procedure was adapted from a previously reported method to build a Caco-2 monolayer cell model and perform the permeability studies. Cell passages 34 to 42 were used to build the model in different batches. For preparation, a total of 3×10^5 Caco-2 cells were dispensed on the apical side of each Transwell filter. The model would be ready after 21-29 days of culture. The model was validated with a paracellular marker, [^14C]-Mannitol. […] To study the permeability, the sample solution was gently dispensed on the apical side of the model and cultured at 37° C. for 2 hours. […] The apparent permeability coefficients (Papp) were calculated using Equation 1, below.
[formula] [formula] • Papp (cm/sec): the apparent permeability coefficient;
(ng/sec): the rate of drug transportation; A (cm^2): the surface area of the cell layers; C0 (ng/ml): The initial drug concentration in the donor side.

[2] = system: Caco-2 monolayer cell model; settings: reported literature value; cited from earlier work
[3] = system: Caco-2 monolayer cell model; settings: 2-hour treatment, threshold 165 Ω*cm^2
Protocol: Caco-2 Monolayer Cell Model Toxicity Study Procedure: Passages 33 to 43 of the Caco-2 cell line were used in the studies. The Caco-2 cells were cultured in complete Dulbecco's modified Eagle's medium (DMEM) [500 ml of DMEM (Corning) containing 50 ml fetal bovine serum (FBS; Gibco Qualified One-Shot, Thermo Scientific) and 5 ml PEST (penicillin 10,000 U/ml-streptomycin, 10,000 ug/ml-glutamine 29.2 mg/ml solution (100×); Gibco, Fisher Scientific)] at 37° C. with 5% CO2 incubation. […] After overnight incubation, the samples were added to the wells and treated for 24 hours. […] A toxicity study utilizing the Caco-2 model was performed prior to permeability studies to examine the safety of the complete liquid formulations. Samples were applied on the apical side of the Transwell. After 2-hour treatments, the treated samples were discarded and washed off twice with HBSS. […] TEER values were also measured before and after the treatments as supplemental criteria for the toxicity study.

[4] = Q-GRFT content determination by HPLC (incl. stability study); format: physicochemical; settings: molar ratios 3, 6, 12 to Q-GRFT monomer, 40° C./75% RH for 3 months
Protocol: Stability Study Procedure: Individual enema bottles containing 125 ml of solution were stored under three conditions (4° C.; 25° C./60% RH; 40° C./75% RH) and monitored over time (24 months for 4° C. and 25° C./60% RH; 6 months for 40°° C./75% RH). At each time point (1, 2, 3, 6, 9, 12, 18, and 24 months), physicochemical characteristics were evaluated and compared against the critical quality assessments (CQAs) according to the following procedures.
(§1) Q-GRFT Content Determination by High-Performance Liquid Chromatography: The High-Performance Liquid Chromatography (HPLC) method for measuring Q-GRFT content was previously developed and reported elsewhere. The samples were diluted 2 times with Milli-Q water. The Q-GRFT content was detected by an HPLC system (Waters Corporation, Milford, MA) equipped with an auto-injector (model 717), a quaternary pump (model 600), and a photodiode array detector (model 2996)) with a C5 column (Jupiter 5 μm 300 Å, 250×4.6 mm) and a C5 pre-column (Security Guard Standard Widepore).
Lyophilization: For samples with cryoprotectants, sugar/sugar polyol powders were weighed and added in individual scintillation vials. The Q-GRFT stock solution was then added. The sample vials were mixed until the powder dissolved. Next, the vials containing sample solution (with or without the addition of cryoprotectants) were transferred to a −80° C. freezer to freeze overnight. Until lyophilization, the samples were tilted and placed in the beaker, attached to a pre-set lyophilizer (Labconco FreeZone Freeze Dry System, Kansas City, MO). The lyophilizing process was set to maintain the environment at −50° C. and 0.070 mBar. Sample vials were measured for their weights after lyophilizing for at least two days. Once the weights were stable, indicating no more water was removed, the lyophilized powder was taken out of the vials and ground with a mortar and pestle. The lyophilized powder would be packed in a tube at 4° C. (unless other conditions were indicated) until further characterizations.
as §1, with “Chromatography (HPLC):” for “Chromatography:”, “HPLC” for “High-Performance Liquid Chromatography (HPLC)”, “measuring the” for “measuring”, “was” for “was previously”, “developed in-house” for “developed”, “previously.” for “elsewhere.”

HIV-1 gp120CM = test: gp120 binding bioactivity by ELISA
Protocol: Bioactivity Determination using Enzyme-linked Immunosorbent Assay (ELISA): An ELISA was applied to evaluate the gp120 binding activity of select Q-GRFT samples. Nunc MaxiSorp 96-well plates were used for this experiment. The MaxiSorp surface is a hydrophilic/hydrophobic mix that binds to a wide range of biomolecules. In short, gp120 was bound to the wells of a 96-well plate overnight at 4° C. The HIV-1 gp120CM was purchased from Kentucky Bioprocessing (KBP; Part #C-1312). After overnight incubation, the solution of gp120 was removed, and a blocking solution (1× PBS-T [PBS with 0.05% Tween 20]) was applied for two hours at room temperature. After that, the wells were washed and incubated with various dilutions of Q-GRFT samples for one hour. Gp120 binding was detected by applying goat anti-Q-GRFT primary antibody (one-hour incubation) and HRP-labeled rabbit anti-goat secondary antibody (one-hour incubation), sequentially. […] Gp120 binding was measured at 450 nm.
Bioactivity Determination by Enzyme-linked Immunosorbent Assay (ELISA): An ELISA was adapted and applied to evaluate the gp120 binding activity of the Q-GRFT samples. […] Gp120 binding was detected by applying goat anti-Q-GRFT primary antibody (one-hour incubation) and HRP-labeled rabbit anti-goat secondary antibody (one-hour incubation), sequentially. […] Gp120 binding was measured at 450 nm with a plate reader.

[5] = pH measurement of enema formulations / reconstituted solutions (pH meter); format: physicochemical; settings: stock solution in 1× PBS
Text: To investigate if the vehicle strength impacts the pH and osmolality of formulations, PBS-base was used directly (1× PBS) or diluted (50% PBS) with or without the addition of TFV and Q-GRFT. To study if the vehicle composition impacts the pH and osmolality of formulations, PBS-base and saline-base were used directly (1× PBS; 1× saline) with the addition of TFV and Q-GRFT. Three formulations (50% PBS, 1× PBS, 1× saline; all with the addition of TFV and Q-GRFT) were chosen to further evaluate the effects of pH adjusting agents on osmolality. For the final screening, both vehicles (PBS-base and saline-base) were diluted into three strengths, 30%, 35%, and 40% with the addition of TFV and Q-GRFT. pH and osmolality were measured as in-line checkpoints for screening and quality assurance.
Manufacturing Procedure: Stock buffer (10× PBS or Saline) was diluted with Milli-Q water to a solution with lower osmolality than desired (˜40 mOsm/kg lower). […] Finally, Q-GRFT stock solution (in 1× PBS) was measured and added to the solution to make the final product. […]
pH: The pH was determined using a pH meter (XL150 pH Benchtop Meters, Fisher Scientific). […]
pH: The pH was determined by a pH meter (XL150 pH Benchtop Meters, Thermo Fisher Scientific; Waltham, MA). […] The pH was recorded only after the value stayed stable.

human colon tissue = test: Ex vivo human colon tissue permeability of Q-GRFT in Ussing chamber; settings: all time points, LLOQ of the HPLC method
Protocol: Permeability and Toxicity Assessment with the Ex Vivo Human Colon Tissue: Tissue specimens were collected from patients 18-75 years old. A section of each tissue was retained for histological evaluation with hematoxylin and eosin (H&E) staining assay. After removal of the excess stromal tissue, the epithelial tissue was placed between the donor and receptor compartments of the Ussing chamber apparatus with the epithelial side toward the donor compartment. This set-up was maintained at 37° C. throughout the experiment. Both donor and receptor compartments were filled with KRBG during system calibration. Then the KRBG buffer from the donor sides was replaced with sample solutions. 50 μL was removed from the donor compartment at the beginning and the end of the experiments. At predetermined time points (Time 0, 15, 30, 45, 60, 75, 90, 120 minutes), 200 μL was removed from the receptor chamber and the same volume of fresh KRBG was added for replacement. These samples were held at 4° C. until analyzed by UPLC (for TFV) or HPLC (for Q-GRFT). The Papp values were calculated using Equation 1 as described above. All tissues, including pre-treatment and post-treatment tissues from all groups, were processed for paraffin sectioning. The tissue sections were embedded into paraffin blocks using the Leica EG 1160 embedding station. […]

CCCCCCCCCCCCOS(=O)(=O)[O-].[Na+] [20% SDS (positive control)]
Paracellular marker [^14C]-Mannitol: Papp ([1]; Caco-2): 30 ± 1 ×10⁻⁶ cm/s

OCC(O)C(O)C(O)C(O)[14CH2]O (stereo not drawn) [[^14C]-Mannitol]
Papp of [^14C]-Mannitol (model validation) ([1]; tested using this Caco-2 monolayer cell model): 0.33 ×10⁻⁶ cm/s | Papp of [^14C]-Mannitol, reported value [2]: 0.12 ×10⁻⁶ cm/s

C=O [formaldehyde]
TEER value after treatment [3]: < 165 Ω*cm^2

OC[C@@H](O)[C@@H](O[C@@H]1O[C@H](CO)[C@H](O)[C@H](O)[C@H]1O)[C@H](O)[C@@H](O)CO [lactitol]
Cryoprotecting effect on Q-GRFT content of lyophilized powder [4]: no protection

OC[C@@H](O)[C@@H](O[C@H]1O[C@H](CO)[C@@H](O)[C@H](O)[C@H]1O)[C@H](O)[C@@H](O)CO [maltitol]
Cryoprotecting effect on Q-GRFT content of lyophilized powder [4]: concentration-dependent protection

OC[C@H]1O[C@@](CO)(O[C@H]2O[C@H](CO)[C@@H](O)[C@H](O)[C@H]2O)[C@@H](O)[C@@H]1O [sucrose]
Cryoprotecting effect on Q-GRFT content of lyophilized powder [4]: concentration-dependent protection

OC[C@H]1O[C@H](O[C@H]2O[C@H](CO)[C@@H](O)[C@H](O)[C@H]2O)[C@H](O)[C@@H](O)[C@@H]1O [trehalose]
Cryoprotecting effect on Q-GRFT content of lyophilized powder [4]: concentration-independent protection

Q-GRFT: engineered form of griffithsin with increased stability against oxidation; stock solution in 1× PBS
EC50 gp120 binding (ELISA) (HIV-1 gp120CM; after lyophilization and reconstitution, Example 2 (FIG. 18)): 7.02 ng/mL | EC50 gp120 binding (ELISA) (HIV-1 gp120CM; reference solution, Example 1 (FIG. 11)): 11.70 ng/mL | pH of Q-GRFT stock solution [5]: around 7.39 | Q-GRFT content from the receptor sides (human colon tissue): < 1 µg/mL
